Measured values taken from patent publication US6335331B1, “Pseudopolymorphic forms of 2-[2-[4-[Bis (4-fluorophenyl) methyl]-1-piperazinyl]ethoxy]acetic acid dihydrochloride” (UCB, S.A., priority 1997, dated 2002).

Tests used:
[1] = Storage stability of the pure forms under stress temperature, HPLC/UV; type: physicochemical; conditions: pure form, 40° or 60° C., 4, 16 or 24 weeks
Description: This is illustrated in the results of the following study, aimed at examining the stabilities of the two pseudopolymorphic forms in the presence of D-sorbitol during storage under stress temperature conditions, that is, in sealed vials at 40 or 60° C. In this study, HPLC analysis of several samples was performed: Form A, Form B, D-sorbitol and 1:1 (w/w) mixtures of Form A or Form B with D-sorbitol. Each sample was homogeneously ground and mixed. Aliquots (500 mg) were compressed into 13 mm diameter pellets at an applied load of 1 ton which a usual compression strength for pharmaceutical tablets. Each compact pellet was immediately ground into a fine powder, and an aliquot was stored in a tightly sealed glass vial at 40 or 60° C. Samples were analysed by HPLC after 0, 4, 16 and 24 weeks. p In a first series of analyses, HPLC/UV spectra were collected using a Kontron HPLC system type 300 fitted with a UV detector. The column used was Supercosil RP—ABZ 250×4.6 mm I.D. 5 μm particle size, and the mobile phase used consisted of an acetonitrile/water 25:75 (v/v) mixture, the water containing 770 mg/l ammonium acetate. Samples to be analysed were dissolved in acetonitrile/water 25:75 (v/v) at a concentration of 2 mg/ml, and 10 μl of these solutions were injected in the HPLC system. […] Pure D-sorbitol was not detected in HPLC/UV. […]

[2] = Intrinsic dissolution rate (static disc method, USP XXII apparatus No 2); type: physicochemical; conditions: 70:30 (w/w) with AVICEL PH102, dihydrochloride
Description: Drug bioavailability studies have shown that an intrinsic dissolution rate (IDR) lower than 0.1 mg/cm^2/min can often be predictive of a dissolution rate-limited absorption in humans. Thus, IDR is a predictive parameter of bioavailability. This parameter depends upon various physicochemical properties including, the chemical form (salt, solvate), the crystal form, the solubility and wettability. The determination of IDR was performed in the following way. The Form to be tested was homogeneously ground and mixed with microcrystalline cellulose AVICEL PH102 (dry binder which improves tableting properties). The substance:excipient mix ratio was 70:30 (w/w). Aliquots (500 mg) were compressed into pellets by compression until a final applied load of 10 tons in order to obtain a constant and known surface area of zero porosity. The dissolution experiments were carried out at 37° C. using 500 ml of aqueous media at three different pH values intended to cover the expected range of human gastrointestinal pH values, i.e. 1.2, 4.0 and 7.5. Uniform and reproducible haemodynamic conditions were obtained by carrying out the test with USP XXII apparatus N°2 (United States Pharmacopoeia, 1990) in which a paddle is used as stirring element (50 rpm) and the pellet assembly is placed at the bottom of the vessel (static disc method). Statistically assessed (p<0.05) linear portions of all replicate dissolution curves were selected for subsequent IDR calculation.

[3] = Storage stability of 1:1 (w/w) binary mixtures with D-sorbitol: sorbitol-efletirizine monoester by HPLC-UV; type: physicochemical; conditions: for sorbitol-efletirizine monoester, Relative % area: 1:1 (w/w) with D-sorbitol; for monoester formation (in words): pellet with D-sorbitol
Description: This is illustrated in the results of the following study, aimed at examining the stabilities of the two pseudopolymorphic forms in the presence of D-sorbitol during storage under stress temperature conditions, that is, in sealed vials at 40 or 60° C. In this study, HPLC analysis of several samples was performed: Form A, Form B, D-sorbitol and 1:1 (w/w) mixtures of Form A or Form B with D-sorbitol. Each sample was homogeneously ground and mixed. Aliquots (500 mg) were compressed into 13 mm diameter pellets at an applied load of 1 ton which a usual compression strength for pharmaceutical tablets. Each compact pellet was immediately ground into a fine powder, and an aliquot was stored in a tightly sealed glass vial at 40 or 60° C. Samples were analysed by HPLC after 0, 4, 16 and 24 weeks. p In a first series of analyses, HPLC/UV spectra were collected using a Kontron HPLC system type 300 fitted with a UV detector. The column used was Supercosil RP—ABZ 250×4.6 mm I.D. 5 μm particle size, and the mobile phase used consisted of an acetonitrile/water 25:75 (v/v) mixture, the water containing 770 mg/l ammonium acetate. Samples to be analysed were dissolved in acetonitrile/water 25:75 (v/v) at a concentration of 2 mg/ml, and 10 μl of these solutions were injected in the HPLC system. Upon comparing the HPLC spectra obtained for the individual components and for the binary mixtures, new peaks detected were considered indicative of an interaction with D-sorbitol. When present, these new peaks were quantified and further identified by HPLC/MS analysis, using a VG Quattro spectrometer coupled onto a Kontron HPLC system. In HPLC/MS, the new peaks observed for the binary mixtures were identified as a sorbitol-efletirizine monoester and dehydrated forms of a sorbitol-efletirizine monoester. The latter appeared after longer storage periods than the former. […] Relative quantification of monoester was performed by HPLC-UV analysis.

[4] = Clinical pharmacology study in urticaria, atopic dermatitis and prurit; type: in vivo; conditions: clinical pharmacology study (to be published)
histamine H1-receptor = histamine H1-receptor (Homo sapiens, UniProt P35367); conditions: in vitro; cited from earlier work
[5] = 40° C., 4 weeks, dihydrochloride
[6] = 40° C., 16 weeks, dihydrochloride
[7] = 40° C., 24 weeks, dihydrochloride
[8] = 60° C., 0 weeks, dihydrochloride
[9] = 60° C., 4 weeks, dihydrochloride
[10] = 60° C., 16 weeks, dihydrochloride
[11] = 60° C., 24 weeks, dihydrochloride
[12] = storage at 60° C., dihydrochloride

Sequence of histamine H1-receptor (P35367 whole entry, species assumed): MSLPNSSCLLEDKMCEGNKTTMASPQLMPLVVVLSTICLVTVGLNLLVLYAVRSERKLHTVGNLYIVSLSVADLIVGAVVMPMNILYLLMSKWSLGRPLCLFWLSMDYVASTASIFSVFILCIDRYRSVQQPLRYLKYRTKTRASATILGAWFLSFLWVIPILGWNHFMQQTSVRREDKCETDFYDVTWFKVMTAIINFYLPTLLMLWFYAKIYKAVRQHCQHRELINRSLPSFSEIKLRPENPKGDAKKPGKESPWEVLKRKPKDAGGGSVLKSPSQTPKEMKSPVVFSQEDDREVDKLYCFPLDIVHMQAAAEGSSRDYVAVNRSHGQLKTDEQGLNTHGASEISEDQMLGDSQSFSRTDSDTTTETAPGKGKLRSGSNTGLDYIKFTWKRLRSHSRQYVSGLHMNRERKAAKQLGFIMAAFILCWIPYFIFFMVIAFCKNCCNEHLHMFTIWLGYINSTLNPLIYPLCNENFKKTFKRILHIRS

| Intrinsic dissolution rate ([2]; pH 1.2, 37° C.) [mg/cm^2/min] | Intrinsic dissolution rate ([2]; pH 4.0, 37° C.) [mg/cm^2/min] | Intrinsic dissolution rate ([2]; pH 7.5, 37° C.) [mg/cm^2/min] | sorbitol-efletirizine monoester, Relative % area ([3]; 40° C., 0 weeks) [Relative % area] | sorbitol-efletirizine monoester, Relative % area [3, 5] [Relative % area] | sorbitol-efletirizine monoester, Relative % area [3, 6] [Relative % area] | sorbitol-efletirizine monoester, Relative % area [3, 7] [Relative % area] | sorbitol-efletirizine monoester, Relative % area [3, 8] [Relative % area] | sorbitol-efletirizine monoester, Relative % area [3, 9] [Relative % area] | sorbitol-efletirizine monoester, Relative % area [3, 10] [Relative % area] | sorbitol-efletirizine monoester, Relative % area [3, 11] [Relative % area] | monoester formation (in words) ([3]; storage at 40° C.) | monoester formation (in words) [3, 12] | Structure (SMILES) | modifications of the HPLC/UV spectrograms after storage [1] | results in the treatment of urticaria, atopic dermatitis and prurit [4] | affinity for H1-receptors (histamine H1-receptor) | selectivity for H1-receptors (histamine H1-receptor) |
| --- | --- | --- | --- | --- | --- | --- | --- | --- | --- | --- | --- | --- | --- | --- | --- | --- | --- |
| 5.04 ± 0.34 | 5.43 ± 0.32 | 4.52 ± 0.34 | 0 | 0.04 | 0.07 | 0.13 | 0.03 | 0.29 | 0.45 | 0.46 | quite low | quite low | Cl.Cl.O=C(O)COCCN1CCN(C(c2ccc(F)cc2)c2ccc(F)cc2)CC1 [Form A, 2-[2-[4-[bis(4-fluorophenyl)methyl]-1-piperazinyl]ethoxy]acetic acid dihydrochloride] | no modifications of the spectrograms were observed |  |  |  |
| 4.05 ± 0.64 | 3.58 ± 0.50 | 3.31 ± 0.04 | 0 | 0.13 | 0.16 | 0.23 | 0.04 | 0.87 | 2.69 | 2.95 | quite low | very significant | Cl.Cl.O=C(O)COCCN1CCN(C(c2ccc(F)cc2)c2ccc(F)cc2)CC1 [Form B, 2-[2-[4-[bis(4-fluorophenyl)methyl]-1-piperazinyl]ethoxy]acetic acid dihydrochloride] | no modifications of the spectrograms were observed |  |  |  |
|  |  |  |  |  |  |  |  |  |  |  |  |  | O=C(O)COCCN1CCN(C(c2ccc(F)cc2)c2ccc(F)cc2)CC1 [efletirizine, 2-[2-[4-[Bis(4-fluorophenyl)methyl]-1-piperazinyl]ethoxy]acetic acid] |  | unexpectedly good results | high affinity | selectivity |
